Legend:
Type in all cases: biochemical
[1] = molecular target: PDE1C (Homo sapiens, UniProt Q14123); assay: PDE1 inhibition assay (SPA), PDE1C; settings: for IC50: concentration required to reach 50% inhibition of the enzyme, 15 nM tritium labelled cAMP, read-out: PDE1C inhibition (nM or %): IC50
Procedure, shortened: (§1)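 A scintillation proximity assay used enzyme sufficient for 20–25% substrate conversion and 15 nM tritiated cAMP in 50 mM HEPES pH 7.6, 10 mM MgCl2, 0.02% Tween20 and 0.1 mg/ml BSA, run for 1 h at room temperature. Reactions were stopped with yttrium silicate SPA beads. IC50 values were derived from activity relative to uninhibited control.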

[2] = molecular target: PDE1B (Homo sapiens, UniProt Q01064); assay: PDE1 inhibition assay (SPA), PDE1B; settings: for IC50: concentration required to reach 50% inhibition of the enzyme, 15 nM tritium labelled cAMP, read-out: PDE1B inhibition (nM or %): IC50; for inhibition at 10 µM: 1 h, % inhibition of the enzyme at a concentration of 10 micro molar of the compound, read-out: PDE1B inhibition (nM or %): % inhib
Chain of PDE1B (Q01064 whole entry): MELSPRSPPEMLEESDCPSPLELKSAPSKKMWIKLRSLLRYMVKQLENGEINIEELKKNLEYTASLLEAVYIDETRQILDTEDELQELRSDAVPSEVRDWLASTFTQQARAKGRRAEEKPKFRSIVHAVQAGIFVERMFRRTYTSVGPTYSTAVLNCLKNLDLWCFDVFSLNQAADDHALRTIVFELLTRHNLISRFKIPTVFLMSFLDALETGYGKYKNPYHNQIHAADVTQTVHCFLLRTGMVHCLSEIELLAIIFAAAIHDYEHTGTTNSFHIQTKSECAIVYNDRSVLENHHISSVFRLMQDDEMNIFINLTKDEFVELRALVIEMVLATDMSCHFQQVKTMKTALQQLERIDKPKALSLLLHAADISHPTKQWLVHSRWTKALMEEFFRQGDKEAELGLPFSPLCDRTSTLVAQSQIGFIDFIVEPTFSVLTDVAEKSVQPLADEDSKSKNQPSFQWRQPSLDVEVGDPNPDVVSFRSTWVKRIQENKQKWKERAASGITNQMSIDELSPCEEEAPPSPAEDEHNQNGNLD
Procedure, shortened: as §1

[3] = molecular target: PDE1A (Homo sapiens, UniProt P54750); assay: PDE1 inhibition assay (SPA), PDE1A; settings: for IC50: concentration required to reach 50% inhibition of the enzyme, 15 nM tritium labelled cAMP, read-out: PDE1A inhibition (nM or %): IC50; for inhibition at 10 µM: 1 h, % inhibition of the enzyme at a concentration of 10 micro molar of the compound, read-out: PDE1A inhibition (nM or %): % inhib
Chain of PDE1A (P54750 whole entry): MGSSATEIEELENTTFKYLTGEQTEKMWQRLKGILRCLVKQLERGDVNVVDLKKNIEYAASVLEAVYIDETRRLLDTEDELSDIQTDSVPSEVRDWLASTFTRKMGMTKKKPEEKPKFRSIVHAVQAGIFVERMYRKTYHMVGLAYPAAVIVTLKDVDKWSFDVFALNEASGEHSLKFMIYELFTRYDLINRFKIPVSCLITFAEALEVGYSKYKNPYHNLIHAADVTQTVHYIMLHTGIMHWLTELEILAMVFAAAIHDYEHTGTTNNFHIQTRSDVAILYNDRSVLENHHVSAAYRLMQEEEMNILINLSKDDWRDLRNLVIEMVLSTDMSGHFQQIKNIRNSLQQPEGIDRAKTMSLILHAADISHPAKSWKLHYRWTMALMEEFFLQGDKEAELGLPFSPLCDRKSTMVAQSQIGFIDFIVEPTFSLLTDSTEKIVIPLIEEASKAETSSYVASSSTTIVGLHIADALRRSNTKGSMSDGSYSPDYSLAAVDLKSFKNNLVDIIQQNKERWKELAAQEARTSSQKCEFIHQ
Procedure, shortened: as §1

Chain of PDE1C (Q14123 whole entry): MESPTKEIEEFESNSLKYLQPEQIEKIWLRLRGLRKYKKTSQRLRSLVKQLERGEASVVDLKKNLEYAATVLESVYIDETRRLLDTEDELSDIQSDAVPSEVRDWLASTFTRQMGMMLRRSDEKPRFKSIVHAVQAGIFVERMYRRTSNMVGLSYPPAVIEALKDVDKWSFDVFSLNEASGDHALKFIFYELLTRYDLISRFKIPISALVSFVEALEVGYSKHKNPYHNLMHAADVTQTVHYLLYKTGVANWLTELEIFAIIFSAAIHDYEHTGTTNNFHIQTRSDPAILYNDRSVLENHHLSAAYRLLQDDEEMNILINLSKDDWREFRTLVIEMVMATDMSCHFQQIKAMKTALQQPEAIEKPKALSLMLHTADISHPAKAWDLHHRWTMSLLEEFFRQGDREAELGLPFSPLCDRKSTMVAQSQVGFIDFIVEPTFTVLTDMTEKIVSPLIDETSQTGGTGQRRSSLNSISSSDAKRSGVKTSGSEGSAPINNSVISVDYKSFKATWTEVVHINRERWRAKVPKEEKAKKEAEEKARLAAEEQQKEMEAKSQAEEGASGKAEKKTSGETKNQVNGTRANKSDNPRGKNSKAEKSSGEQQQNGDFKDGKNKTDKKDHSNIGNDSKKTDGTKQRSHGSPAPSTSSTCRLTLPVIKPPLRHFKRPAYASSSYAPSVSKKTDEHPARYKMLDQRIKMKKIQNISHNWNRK

IC50 [1] [nM] | IC50 [2] [nM] | IC50 [3] [nM] | PDE1C inhibition (nM or %): % inhib ([1]; % inhibition of the enzyme at a concentration of 10 micro molar of the compound) [%] | inhibition at 10 µM [2] [%] | inhibition at 10 µM [3] [%] | SMILES
27 | 220 | 369 |  |  |  | O=c1c2nnc(C3CCOCC3)n2cc(Cc2cccc(F)c2)n1CC1CCCC1 [7-(cyclopentylmethyl)-6-(3-fluorobenzyl)-3-(tetrahydro-2H-pyran-4-yl)-[1,2,4]triazolo[4,3-a]pyrazin-8(7H)-one]
4 | 37 | 17 |  |  |  | Cc1cccc(Cc2cn3c(C4CCOCC4)nnc3c(=O)n2CC2CCCC2)c1 [7-(cyclopentylmethyl)-6-(3-methylbenzyl)-3-(tetrahydro-2H-pyran-4-yl)-[1,2,4]triazolo[4,3-a]pyrazin-8(7H)-one]
12 | 140 | 142 |  |  |  | O=c1c2nnc(C3CCOCC3)n2cc(Cc2ccc(F)cc2)n1CC1CCCC1 [7-(cyclopentylmethyl)-6-(4-fluorobenzyl)-3-(tetrahydro-2H-pyran-4-yl)-[1,2,4]triazolo[4,3-a]pyrazin-8(7H)-one]
3 | 19 | 21 |  |  |  | Cc1ccc(Cc2cn3c(C4CCOCC4)nnc3c(=O)n2CC2CCCC2)cc1 [7-(cyclopentylmethyl)-6-(4-methylbenzyl)-3-(tetrahydro-2H-pyran-4-yl)-[1,2,4]triazolo[4,3-a]pyrazin-8(7H)-one]

More lines, now with the values behind:

SMILES | IC50 [1] [nM] | IC50 [2] [nM] | IC50 [3] [nM] | PDE1C inhibition (nM or %): % inhib ([1]; % inhibition of the enzyme at a concentration of 10 micro molar of the compound) [%] | inhibition at 10 µM [2] [%] | inhibition at 10 µM [3] [%]
CCCc1nnc2c(=O)n(Cc3ccccc3)ccn12 [7-Benzyl-3-propyl-[1,2,4]triazolo[4,3-a]pyrazin-8(7H)-one] | 110 | 400 | 770 |  |  | 
CCCc1nnc2c(=O)n(CC)ccn12 [7-Ethyl-3-propyl-[1,2,4]triazolo[4,3-a]pyrazin-8(7H)-one] |  |  |  | 52 | 71 | 49
CCCCCCn1ccn2c(C3CCOCC3)nnc2c1=O [7-Hexyl-3-(tetrahydro-2H-pyran-4-yl)-[1,2,4]triazolo[4,3-a]pyrazin-8(7H)-one] | 1100 | 1000 | 1260 |  |  | 
CCCc1nnc2c(=O)n(CC(C)C)ccn12 [7-Isobutyl-3-propyl-[1,2,4]triazolo[4,3-a]pyrazin-8(7H)-one] | 970 | 2700 | 3300 |  |  | 
CC(C)CCn1ccn2c(C3CCOCC3)nnc2c1=O [7-isopentyl-3-(tetrahydro-2H-pyran-4-yl)-[1,2,4]triazolo[4,3-a]pyrazin-8(7H)-one] | 1100 |  |  |  | 55 | 47

From patent publication US10150771B2, “Triazolopyrazinones as PDE1 inhibitors” (H. Lundbeck A/S, priority 2014, dated 2018)
